System: MV-4-11 cells
Assay: Gene expression microarray analysis (Affymetrix PrimeView) and GSEA
Assay type: cell-based, human
Design: RFU PODN (11730768_x_at) / Fold change /veh PODN (11730768_x_at) / RFU LINC00158 (11744669_a_at) / Fold change /veh LINC00158 (11744669_a_at) / RFU DUSP10 (11751237_a_at) / Fold change /veh DUSP10 (11751237_a_at) / RFU ID3 (11757404_x_at) / Fold change /veh ID3 (11757404_x_at) / RFU PLEKHG5 (11737974_s_at) / Fold change /veh PLEKHG5 (11737974_s_at) / RFU LRRC4B (11730491_at) / Fold change /veh LRRC4B (11730491_at) / RFU GIMAP4 (11747438_a_at) / Fold change /veh GIMAP4 (11747438_a_at) / RFU KRT8 (11758183_x_at) / Fold change /veh KRT8 (11758183_x_at) / RFU CNN1 (11734310_a_at) / Fold change /veh CNN1 (11734310_a_at) / RFU VPS37D (11726825_at) / Fold change /veh VPS37D (11726825_at) / RFU C10orf10 (11716522_x_at) / Fold change /veh C10orf10 (11716522_x_at) / RFU KIR2DL2 /// KIR2DL4 /// KIR2DL5A /// KIR2DL5B /// KIR2DS1 /// KIR2DS2 /// KIR2DS3 /// KIR2DS4 /// KIR3DL3 /// KIR3DL3 /// KIR3DS1 (11738374_at) / Fold change /veh KIR2DL2 /// KIR2DL4 /// KIR2DL5A /// KIR2DL5B /// KIR2DS1 /// KIR2DS2 /// KIR2DS3 /// KIR2DS4 /// KIR3DL3 /// KIR3DL3 /// KIR3DS1 (11738374_at) / RFU C1QL1 (11718748_at) / Fold change /veh C1QL1 (11718748_at) / RFU TMPRSS4 (11747572_a_at) / Fold change /veh TMPRSS4 (11747572_a_at) / RFU HAMP (11756126_x_at) / Fold change /veh HAMP (11756126_x_at) / RFU RNFT2 (11725882_a_at) / Fold change /veh RNFT2 (11725882_a_at) / RFU NR4A2 (11747474_a_at) / Fold change /veh NR4A2 (11747474_a_at) / RFU ABCC12 (11746883_a_at) / Fold change /veh ABCC12 (11746883_a_at) / RFU TMEM136 (11760407_x_at) / Fold change /veh TMEM136 (11760407_x_at) / RFU CLDN22 /// WWC2 (11732394_at) / Fold change /veh CLDN22 /// WWC2 (11732394_at) / RFU HLA-DPB1 (11760878_x_at) / Fold change /veh HLA-DPB1 (11760878_x_at) / RFU SPINT1 (11716480_a_at) / Fold change /veh SPINT1 (11716480_a_at) / RFU GAP43 (11754022_s_at) / Fold change /veh GAP43 (11754022_s_at) / RFU A4GNT (11735810_at) / Fold change /veh A4GNT (11735810_at) / RFU PRB3 (11715151_x_at) / Fold change /veh PRB3 (11715151_x_at) / RFU TUBB4B (11761932_at) / Fold change /veh TUBB4B (11761932_at) / RFU CAPN14 (11732068_a_at) / Fold change /veh CAPN14 (11732068_a_at) / RFU TMCC2 (11721928_a_at) / Fold change /veh TMCC2 (11721928_a_at) / RFU IRGQ (11745062_a_at) / Fold change /veh IRGQ (11745062_a_at) / RFU FAM174B (11720279_a_at) / Fold change /veh FAM174B (11720279_a_at) / RFU TMPRSS4 (11748680_a_at) / Fold change /veh TMPRSS4 (11748680_a_at) / RFU FAM212B (11763350_a_at) / Fold change /veh FAM212B (11763350_a_at) / RFU PLEKHG5 (11743358_a_at) / Fold change /veh PLEKHG5 (11743358_a_at) / RFU ZSCAN30 (11745921_a_at) / Fold change /veh ZSCAN30 (11745921_a_at) / RFU CMKLR1 (11741424_a_at) / Fold change /veh CMKLR1 (11741424_a_at) / RFU LOC101060620 /// MAPK8IP1 (11723275_at) / Fold change /veh LOC101060620 /// MAPK8IP1 (11723275_at) / RFU SPTSSB (11747773_x_at) / Fold change /veh SPTSSB (11747773_x_at) / RFU PRSS12 (11739890_at) / Fold change /veh PRSS12 (11739890_at) / RFU BIN1 (11741810_x_at) / Fold change /veh BIN1 (11741810_x_at) / RFU WNT11 (11732464_a_at) / Fold change /veh WNT11 (11732464_a_at) / RFU C10orf10 (11716521_a_at) / Fold change /veh C10orf10 (11716521_a_at) / RFU C5orf56 (11738089_at) / Fold change /veh C5orf56 (11738089_at) / RFU CYB561 (11721691_x_at) / Fold change /veh CYB561 (11721691_x_at) / RFU ANKRD19P (11752326_a_at) / Fold change /veh ANKRD19P (11752326_a_at) / RFU OR2T12 /// OR2T33 /// OR2T8 (11738714_s_at) / Fold change /veh OR2T12 /// OR2T33 /// OR2T8 (11738714_s_at) / RFU VCAN (11748164_a_at) / Fold change /veh VCAN (11748164_a_at) / RFU JSRP1 (11732532_at) / Fold change /veh JSRP1 (11732532_at) / RFU KRTAP10-11 (11738290_x_at) / Fold change /veh KRTAP10-11 (11738290_x_at) / RFU MYO3A (11730013_a_at) / Fold change /veh MYO3A (11730013_a_at) / RFU EBF3 (11725865_a_at) / Fold change /veh EBF3 (11725865_a_at) / RFU CAMK2N1 (11719241_x_at) / Fold change /veh CAMK2N1 (11719241_x_at) / RFU C5orf56 (11738088_a_at) / Fold change /veh C5orf56 (11738088_a_at) / RFU OLFML3 (11715873_a_at) / Fold change /veh OLFML3 (11715873_a_at) / RFU LOC100653217 /// NTM (11731650_a_at) / Fold change /veh LOC100653217 /// NTM (11731650_a_at) / RFU MAPK11 (11762145_a_at) / Fold change /veh MAPK11 (11762145_a_at) / RFU FIZ1 (11724087_x_at) / Fold change /veh FIZ1 (11724087_x_at) / RFU OASL (11726364_x_at) / Fold change /veh OASL (11726364_x_at) / RFU SOX15 (11748057_x_at) / Fold change /veh SOX15 (11748057_x_at) / RFU CD79A (11719716_a_at) / Fold change /veh CD79A (11719716_a_at) / RFU HIST1H1D (11736915_at) / Fold change /veh HIST1H1D (11736915_at) / RFU CASKIN2 (11723855_a_at) / Fold change /veh CASKIN2 (11723855_a_at) / RFU LOC730098 (11760151_x_at) / Fold change /veh LOC730098 (11760151_x_at) / RFU OR4N2 (11742367_at) / Fold change /veh OR4N2 (11742367_at) / RFU PRRT2 (11749266_a_at) / Fold change /veh PRRT2 (11749266_a_at) / RFU SNX32 (11753110_a_at) / Fold change /veh SNX32 (11753110_a_at) / RFU CDHR5 (11726645_a_at) / Fold change /veh CDHR5 (11726645_a_at) / RFU RCAN1 (11760418_a_at) / Fold change /veh RCAN1 (11760418_a_at) / RFU FAM167A (11723789_a_at) / Fold change /veh FAM167A (11723789_a_at) / RFU FAM26E (11764081_at) / Fold change /veh FAM26E (11764081_at) / RFU ISYNA1 (11749810_s_at) / Fold change /veh ISYNA1 (11749810_s_at) / RFU ACY1 (11761880_at) / Fold change /veh ACY1 (11761880_at) / RFU 11764098_at / Fold change /veh 11764098_at / RFU SAMD14 (11745864_x_at) / Fold change /veh SAMD14 (11745864_x_at) / RFU NPB (11741838_a_at) / Fold change /veh NPB (11741838_a_at) / RFU TMPRSS6 (11731388_a_at) / Fold change /veh TMPRSS6 (11731388_a_at) / RFU KRTAP10-2 (11738614_at) / Fold change /veh KRTAP10-2 (11738614_at) / RFU ARHGAP8 /// PRR5-ARHGAP8 (11727945_x_at) / Fold change /veh ARHGAP8 /// PRR5-ARHGAP8 (11727945_x_at) / RFU KRTAP5-7 /// NADSYN1 (11734609_at) / Fold change /veh KRTAP5-7 /// NADSYN1 (11734609_at) / RFU RASL12 (11751679_a_at) / Fold change /veh RASL12 (11751679_a_at) / RFU CDKN2B (11736163_a_at) / Fold change /veh CDKN2B (11736163_a_at) / RFU PRF1 (11729649_at) / Fold change /veh PRF1 (11729649_at) / RFU, ZNF638 /// ZNF638-IT1 / Fold change vs veh, ZNF638 /// ZNF638-IT1 / RFU, PANK3 / Fold change vs veh, PANK3 / RFU, SH3YL1 / Fold change vs veh, SH3YL1 / RFU, ZEB2 / Fold change vs veh, ZEB2 / RFU, NRIP1 / Fold change vs veh, NRIP1 / RFU, PTTG1IP / Fold change vs veh, PTTG1IP / RFU, CAPN2 / Fold change vs veh, CAPN2 / RFU, MED14 / Fold change vs veh, MED14 / RFU, SNORA58 / Fold change vs veh, SNORA58 / RFU, C1orf63 / Fold change vs veh, C1orf63 / RFU, LRRFIP1 / Fold change vs veh, LRRFIP1 / RFU, NDUFAF7 / Fold change vs veh, NDUFAF7 / RFU, SLC12A2 / Fold change vs veh, SLC12A2 / RFU, IBTK / Fold change vs veh, IBTK / RFU, ESF1 / Fold change vs veh, ESF1 / Fold change vs veh, TMEM50B / RFU, TAOK1 / Fold change vs veh, TAOK1 / RFU, ACBD3 / Fold change vs veh, ACBD3 / RFU, TMA16 / Fold change vs veh, TMA16 / RFU, RWDD3 / Fold change vs veh, RWDD3 / RFU, BCAT1 / Fold change vs veh, BCAT1 / RFU, EDEM3 / Fold change vs veh, EDEM3 / RFU, TMEM33 / Fold change vs veh, TMEM33 / RFU, WDR75 / Fold change vs veh, WDR75 / RFU, AHCTF1 / Fold change vs veh, AHCTF1 / RFU, TFRC / Fold change vs veh, TFRC / RFU, ZDHHC17 / Fold change vs veh, ZDHHC17 / RFU, NOM1 / Fold change vs veh, NOM1 / RFU, ARL8B / Fold change vs veh, ARL8B / RFU, ZBTB11 / Fold change vs veh, ZBTB11 / RFU, TAMM41 / Fold change vs veh, TAMM41 / RFU, KIAA1704 /// LOC100996395 / Fold change vs veh, KIAA1704 /// LOC100996395 / RFU, ING1 / Fold change vs veh, ING1 / RFU, TRMT61B / Fold change vs veh, TRMT61B / RFU, FUBP3 / Fold change vs veh, FUBP3 / RFU, TP53 / Fold change vs veh, TP53 / RFU, TNKS2 / Fold change vs veh, TNKS2 / RFU, ZFP14 / Fold change vs veh, ZFP14 / RFU, ACTR2 / Fold change vs veh, ACTR2 / RFU, PPP3R1 / Fold change vs veh, PPP3R1 / RFU, PIK3R1 / Fold change vs veh, PIK3R1 / RFU, HNRNPA1 / Fold change vs veh, HNRNPA1 / RFU, RNF170 / Fold change vs veh, RNF170 / RFU, ZNF28 / Fold change vs veh, ZNF28 / RFU, RNGTT / Fold change vs veh, RNGTT / RFU, OGT / Fold change vs veh, OGT / RFU, BRD1 / Fold change vs veh, BRD1 / RFU, MARS / Fold change vs veh, MARS / RFU, ZNF655 / Fold change vs veh, ZNF655 / RFU, FAHD1 / Fold change vs veh, FAHD1 / RFU, BDP1 / Fold change vs veh, BDP1 / RFU, LRRCC1 / Fold change vs veh, LRRCC1 / RFU, ARID1A / Fold change vs veh, ARID1A / RFU, ZNF146 / Fold change vs veh, ZNF146 / RFU, ZNF330 / Fold change vs veh, ZNF330 / RFU, GPN3 / Fold change vs veh, GPN3 / RFU, C9orf123 / Fold change vs veh, C9orf123 / RFU, N4BP2L2 / Fold change vs veh, N4BP2L2 / RFU, ARFIP1 / Fold change vs veh, ARFIP1 / RFU, FAM179B / Fold change vs veh, FAM179B / RFU, BCL10 / Fold change vs veh, BCL10 / RFU, UHRF1BP1L / Fold change vs veh, UHRF1BP1L / RFU, BET1 / Fold change vs veh, BET1 / RFU, CNOT2 / Fold change vs veh, CNOT2 / RFU, ZNF268 / Fold change vs veh, ZNF268 / Fold change vs veh, ZNF507 / RFU, DGCR2 / Fold change vs veh, DGCR2 / RFU, WDSUB1 / Fold change vs veh, WDSUB1 / Fold change vs veh, HSP90B1 /// MIR3652 / RFU, ADSS / Fold change vs veh, ADSS / RFU, GK / Fold change vs veh, GK / RFU, ZNF148 / Fold change vs veh, ZNF148 / RFU, TAF9 / Fold change vs veh, TAF9 / RFU, SLC1A5 / Fold change vs veh, SLC1A5 / RFU, SLMO2 / Fold change vs veh, SLMO2 / RFU, ABCC4 / Fold change vs veh, ABCC4 / RFU, LOC101060439 /// RAP1B / Fold change vs veh, LOC101060439 /// RAP1B / RFU, RFX7 / Fold change vs veh, RFX7 / RFU, GTPBP10 / Fold change vs veh, GTPBP10 / RFU, CNEP1R1 / Fold change vs veh, CNEP1R1 / RFU, BIVM-ERCC5 /// ERCC5 / Fold change vs veh, BIVM-ERCC5 /// ERCC5 / RFU, ILF3 / Fold change vs veh, ILF3 / RFU 11762660_at / Fold change /veh 11762660_at / RFU VCAN (11757783_s_at) / Fold change /veh VCAN (11757783_s_at) / RFU DDX43 (11728927_at) / Fold change /veh DDX43 (11728927_at) / RFU KRT8 (11758188_x_at) / Fold change /veh KRT8 (11758188_x_at) / RFU NKD1 (11759106_at) / Fold change /veh NKD1 (11759106_at) / RFU SRD5A1 (11742802_a_at) / Fold change /veh SRD5A1 (11742802_a_at) / RFU TPSAB1 /// TPSB2 (11721975_s_at) / Fold change /veh TPSAB1 /// TPSB2 (11721975_s_at) / RFU GSTM3 (11746129_a_at) / Fold change /veh GSTM3 (11746129_a_at) / RFU IL23R (11737362_x_at) / Fold change /veh IL23R (11737362_x_at) / RFU TMEM51 (11727254_a_at) / Fold change /veh TMEM51 (11727254_a_at) / RFU PIWIL2 (11732686_x_at) / Fold change /veh PIWIL2 (11732686_x_at) / RFU ORM1 (11744905_x_at) / Fold change /veh ORM1 (11744905_x_at) / RFU CCDC152 (11743942_at) / Fold change /veh CCDC152 (11743942_at) / RFU ECM1 (11717891_a_at) / Fold change /veh ECM1 (11717891_a_at) / RFU IL23R (11748794_a_at) / Fold change /veh IL23R (11748794_a_at) / RFU TNFAIP8L3 (11732012_x_at) / Fold change /veh TNFAIP8L3 (11732012_x_at) / RFU MBOAT4 (11741988_at) / Fold change /veh MBOAT4 (11741988_at) / RFU 11764193_at / Fold change /veh 11764193_at / RFU TMEM53 (11763286_at) / Fold change /veh TMEM53 (11763286_at) / RFU MAGEB2 (11727129_at) / Fold change /veh MAGEB2 (11727129_at) / RFU TMEM200A (11744735_a_at) / Fold change /veh TMEM200A (11744735_a_at) / RFU CCDC152 (11751479_a_at) / Fold change /veh CCDC152 (11751479_a_at) / RFU FAM211A (11726209_a_at) / Fold change /veh FAM211A (11726209_a_at) / RFU RGS16 (11746705_a_at) / Fold change /veh RGS16 (11746705_a_at) / RFU VCAN (11755009_s_at) / Fold change /veh VCAN (11755009_s_at) / RFU RHOB (11743442_s_at) / Fold change /veh RHOB (11743442_s_at) / RFU RGS16 (11720943_a_at) / Fold change /veh RGS16 (11720943_a_at) / RFU RGS16 (11720944_at) / Fold change /veh RGS16 (11720944_at) / RFU, VPS4B / Fold change vs veh, VPS4B / RFU, CREB1 / Fold change vs veh, CREB1 / RFU, DNAJC13 / Fold change vs veh, DNAJC13 / RFU, GNAQ / Fold change vs veh, GNAQ / RFU, CDK5R1 / Fold change vs veh, CDK5R1 / RFU, ZRANB3 / Fold change vs veh, ZRANB3 / RFU, CUL4A / Fold change vs veh, CUL4A / RFU, CCNY / Fold change vs veh, CCNY / RFU, UFL1 / Fold change vs veh, UFL1 / RFU, COG3 / Fold change vs veh, COG3 / RFU, DIAPH2 / Fold change vs veh, DIAPH2 / RFU, SKA2 / Fold change vs veh, SKA2 / RFU, AFF3 / Fold change vs veh, AFF3 / RFU, LMF1 / Fold change vs veh, LMF1 / RFU, IPO11 / Fold change vs veh, IPO11 / RFU, DFFB / Fold change vs veh, DFFB / RFU, FOXP1 / Fold change vs veh, FOXP1 / RFU, CARD8 / Fold change vs veh, CARD8 / RFU, STRN3 / Fold change vs veh, STRN3 / RFU, ADK / Fold change vs veh, ADK / RFU, RASSF2 / Fold change vs veh, RASSF2 / RFU, WIPF1 / Fold change vs veh, WIPF1 / RFU, LARP1B / Fold change vs veh, LARP1B / RFU, RASA1 / Fold change vs veh, RASA1 / RFU, RB1 / Fold change vs veh, RB1 / RFU, PPFIA1 / Fold change vs veh, PPFIA1 / RFU, MAT2A / Fold change vs veh, MAT2A / RFU, CCT5 / Fold change vs veh, CCT5 / RFU, WDR92 / Fold change vs veh, WDR92 / RFU, CUX1 / Fold change vs veh, CUX1 / RFU, TTC7A / Fold change vs veh, TTC7A / RFU, TMEM135 / Fold change vs veh, TMEM135 / RFU, DEPTOR / Fold change vs veh, DEPTOR / RFU, CPM / Fold change vs veh, CPM / RFU, DNAJB6 / Fold change vs veh, DNAJB6 / RFU, CACNA2D3 / Fold change vs veh, CACNA2D3 / RFU, DTX4 / Fold change vs veh, DTX4 / RFU, TFCP2 / Fold change vs veh, TFCP2 / RFU, GMCL1 /// GMCL1P1 / Fold change vs veh, GMCL1 /// GMCL1P1 / RFU, AEBP2 / Fold change vs veh, AEBP2 / RFU, SNHG1 /// SNORD22 /// SNORD25 /// SNORD26 /// SNORD27 /// SNORD28 /// SNORD29 /// SNORD31 / Fold change vs veh, SNHG1 /// SNORD22 /// SNORD25 /// SNORD26 /// SNORD27 /// SNORD28 /// SNORD29 /// SNORD31 / Fold change (Aza/veh), C12orf56 (ProbeSet 11735607_a_at) / Fold change (ACY-1035/veh), C12orf56 (ProbeSet 11735607_a_at) / Fold change (Aza/veh), FGFR1OP (ProbeSet 11751329_s_at) / Fold change (ACY-1035/veh), FGFR1OP (ProbeSet 11751329_s_at) / Fold change (Aza/veh), VPS36 (ProbeSet 11739960_a_at) / Fold change (ACY-1035/veh), VPS36 (ProbeSet 11739960_a_at) / RFU SYPL1 (11715823_x_at) / Fold change /veh SYPL1 (11715823_x_at) / RFU IGFBP7 (11715501_s_at) / Fold change /veh IGFBP7 (11715501_s_at) / RFU REEP3 (11722064_at) / Fold change /veh REEP3 (11722064_at) / RFU IGLL1 (11728026_x_at) / Fold change /veh IGLL1 (11728026_x_at): dose or concentration left out as unconfirmed
Conditions: MV-4-11 cells, 48 hours

Nc1ncn([C@@H]2O[C@H](CO)[C@@H](O)[C@H]2O)c(=O)n1 [azacitidine]
RFU IGLL1 (11728026_x_at): 12.85 RFU

Source: article PMC5218480 (PLoS ONE, 2017)
